Experimental data as given in patent US9085536B2, “Aconitine compounds, compositions, uses, and preparation thereof” (priority 2011, dated 2015).
Entries after “also recorded” stand apart in the source; their conditions may differ. Read-outs that look alike come from different tables or passages of the source.

Tests used:
[1] = molecular target: T1, rNaV1.4 expressed in CHO cells (Rattus norvegicus, UniProt P15390); experiment: Na+ current block at steady state, whole-cell patch clamp with pulse trains; assay type: cell-based; details: for Current measured at 20 μM (%) / Current measured at 75 μM (%): before wash-off; for depolarizing pulses required to reach steady-state block: 10 Hz pulse trains
T1 construct: expressed in transfected cells; host or cells: CHO cells
Description: Binding of aconitine to NaV is use-dependent and is known to result both in a left shift of the current-voltage (I-V) relationship and in partial block of the channel. […] To determine whether aconitine binding is reversible, two experiments were designed. First, as block by aconitine is known to be use dependent, peak current was measured as a function of pulse number in the presence of two different concentrations of aconitine. Since aconitine binds preferentially to the open state of the sodium channel, a pulse train was applied sequentially with a control pulse used to record peak current. The pulse train consisted of a series of 50 depolarizing pulses (from −100 mV holding potential to 0 mV, 10 ms duration) applied at 10 Hz frequency, while the control pulse consisted of a single depolarizing pulse (from −100 mV holding potential to 0 mV test potential, 10 ms duration).
Pulse trains of 10 Hz frequency and control pulses were applied sequentially to cells expressing rNaV1.4, and currents elicited from the control pulse were recorded after each pulse train. This process was repeated until the current elicited from the control pulse had reached a steady state and was no longer decreasing with each additional pulse train. If block were irreversible, this steady state current would be expected to be independent of toxin concentration—the toxin would not be able to dissociate from its receptor, and the number of toxin molecules is much greater than the number of sodium channels (assuming a 100 μL chamber containing 1000 CHO cells, each expressing 10,000 sodium channels, at 50 μM concentration toxin molecules outnumber receptors by a factor of 3×10^8:1), therefore, all receptors would eventually reach the bound state.
Block by aconitine is known to be use-dependent, therefore the use-dependence of the C14 derivatives of aconitine was evaluated. Peak Na current was measured as a function of pulse number in the presence of different concentrations of the molecules. […] Since aconitine binds preferentially to the open state of the sodium channel, a pulse train was applied sequentially with a control pulse used to record peak current. The pulse train consisted of a series of 50 depolarizing pulses (from −100 mV holding potential to 0 mV, 10 ms duration) applied at 10 Hz frequency, while the control pulse consisted of a single depolarizing pulse (from −100 mV holding potential to 0 mV test potential, 10 ms duration).
Pulse trains of 10 Hz frequency and control pulses were applied sequentially to CHO cells expressing rNaV1.4, and currents elicited from the control pulse were recorded after each pulse train. This process was repeated until the current elicited from the control pulse had reached a steady state and was no longer decreasing with each additional pulse train. If block were irreversible, this steady state current would be expected to be independent of toxin concentration—the toxin would not be able to dissociate from its receptor, and the number of toxin molecules is much greater than the number of sodium channels, therefore, all receptors would eventually reach the bound state.
The ability of the synthesized aconitine derivatives to block NaV channels was evaluated with patch-clamp experiments in the whole-cell configuration on CHO cells expressing rNaV1.4 heterologously. A buffer solution containing the toxin was applied to the cells, whole-cell Na^+ currents were recorded until the decreasing current reached a steady-state (300 to 3000 pulses, depending on the molecules and concentrations). The peak Na^+ currents were measured with a depolarizing test pulse (from −100 mV holding potential to 0 mV test potential, 10 ms duration).

[2] = molecular target: T1, rNaV1.4 expressed in CHO cells; experiment: Activation: current-voltage (I-V) and conductance-voltage (G-V) relationship, whole-cell recording; assay type: cell-based
Description: To determine if the shift in I-V relationship is affected by the aromaticity of the aconitine C14 benzoate, current-voltage relationships were recorded for control cells expressing NaV, those that had been modified by aconitine, and those that had been modified by aconitine C14-cyclohexanoate 4.8d. For the modified channels, solutions of 50 μM concentration of the respective toxins were perfused onto the cells, and then depolarizing pulses were applied until a steady state current was observed, generally requiring about 1000 pulses. At that time, current-voltage relationships were again recorded. […] A shift towards hyperpolarizing potentials is clearly observed in both cases. Currents recorded at −50 mV are highlighted for all three experiments.
To determine the effect on current-voltage (I-V) relationship of the aconitine derivatives, whole cell currents were recorded in cells expressing NaV in the presence of aconitine derivatives. Control I-V plots were recorded with unmodified NaV1.4, to which were compared NaV channels modified by aconitine as well as by selected analogs. For the modified channels, solutions of the respective toxins were perfused onto the cells, and then depolarizing pulses were applied until a steady state current was observed, generally requiring about 1000 pulses. A sequence of test pulses was then recorded to determine the current-voltage relationships (using a step protocol in which CHO cells were depolarized for 10 ms from a holding potential of −100 mV to a range of potentials from −95 mV to +30 mV in 5 or 10 mV increments; peak currents were normalized to the maximum peak current and plotted against voltage).

[3] = molecular target: T1, rNaV1.4 expressed in CHO cells; assay type: cell-based; details: for reversibility of binding upon wash-off: wash-off experiments, Table 3 concentrations
Description: […] […] It is noteworthy that little or no increase in current was observed during wash off when no depolarizing pulses were applied and peak current was measured as a function of time.
Since the molecules bind to the open-state of the Nav channel their release also requires activation pulses. In typical experiments, buffered external solution was perfused and a pulse train sequence was applied to the patch-clamp until the current reached a steady-state for at least two minutes.

[4] = molecular target: T1, rNaV1.4 expressed in CHO cells; experiment: Steady-state inactivation, whole-cell recording, Boltzmann fit; assay type: cell-based
Description: . The channels were modified by perfusing the cells with buffered solution containing aconitine at the given concentrations and then simple pulses (10 ms pulses to 0 mV from −100 mV holding potential) were recorded until the currents leveled to a steady value (typically ˜1000 pulses). Steady-state fast inactivation of the current was then determined by delivering 500 ms conditioning pulses to potentials ranging from −130 to −11 mV (7 my increments) immediately followed by a 10 ms test pulse to 0 mV to test the available current. The peak current measured during the test pulse was normalized to the maximum peak current recorded in the conditioning pulses. […] Midpoint voltage V0.5 represents the membrane potential at which half maximum current is observed; slope factor at midpoint k quantifies the rate at which the inactivation response occurs.

[5] = molecular target: NaV1.2 (Homo sapiens, UniProt Q99250); details: cited from earlier work
[6] = molecular target: NaV1.8 (Homo sapiens, UniProt Q9Y5Y9); details: cited from earlier work
Sequence of NaV1.8 (Q9Y5Y9 whole entry, looked up): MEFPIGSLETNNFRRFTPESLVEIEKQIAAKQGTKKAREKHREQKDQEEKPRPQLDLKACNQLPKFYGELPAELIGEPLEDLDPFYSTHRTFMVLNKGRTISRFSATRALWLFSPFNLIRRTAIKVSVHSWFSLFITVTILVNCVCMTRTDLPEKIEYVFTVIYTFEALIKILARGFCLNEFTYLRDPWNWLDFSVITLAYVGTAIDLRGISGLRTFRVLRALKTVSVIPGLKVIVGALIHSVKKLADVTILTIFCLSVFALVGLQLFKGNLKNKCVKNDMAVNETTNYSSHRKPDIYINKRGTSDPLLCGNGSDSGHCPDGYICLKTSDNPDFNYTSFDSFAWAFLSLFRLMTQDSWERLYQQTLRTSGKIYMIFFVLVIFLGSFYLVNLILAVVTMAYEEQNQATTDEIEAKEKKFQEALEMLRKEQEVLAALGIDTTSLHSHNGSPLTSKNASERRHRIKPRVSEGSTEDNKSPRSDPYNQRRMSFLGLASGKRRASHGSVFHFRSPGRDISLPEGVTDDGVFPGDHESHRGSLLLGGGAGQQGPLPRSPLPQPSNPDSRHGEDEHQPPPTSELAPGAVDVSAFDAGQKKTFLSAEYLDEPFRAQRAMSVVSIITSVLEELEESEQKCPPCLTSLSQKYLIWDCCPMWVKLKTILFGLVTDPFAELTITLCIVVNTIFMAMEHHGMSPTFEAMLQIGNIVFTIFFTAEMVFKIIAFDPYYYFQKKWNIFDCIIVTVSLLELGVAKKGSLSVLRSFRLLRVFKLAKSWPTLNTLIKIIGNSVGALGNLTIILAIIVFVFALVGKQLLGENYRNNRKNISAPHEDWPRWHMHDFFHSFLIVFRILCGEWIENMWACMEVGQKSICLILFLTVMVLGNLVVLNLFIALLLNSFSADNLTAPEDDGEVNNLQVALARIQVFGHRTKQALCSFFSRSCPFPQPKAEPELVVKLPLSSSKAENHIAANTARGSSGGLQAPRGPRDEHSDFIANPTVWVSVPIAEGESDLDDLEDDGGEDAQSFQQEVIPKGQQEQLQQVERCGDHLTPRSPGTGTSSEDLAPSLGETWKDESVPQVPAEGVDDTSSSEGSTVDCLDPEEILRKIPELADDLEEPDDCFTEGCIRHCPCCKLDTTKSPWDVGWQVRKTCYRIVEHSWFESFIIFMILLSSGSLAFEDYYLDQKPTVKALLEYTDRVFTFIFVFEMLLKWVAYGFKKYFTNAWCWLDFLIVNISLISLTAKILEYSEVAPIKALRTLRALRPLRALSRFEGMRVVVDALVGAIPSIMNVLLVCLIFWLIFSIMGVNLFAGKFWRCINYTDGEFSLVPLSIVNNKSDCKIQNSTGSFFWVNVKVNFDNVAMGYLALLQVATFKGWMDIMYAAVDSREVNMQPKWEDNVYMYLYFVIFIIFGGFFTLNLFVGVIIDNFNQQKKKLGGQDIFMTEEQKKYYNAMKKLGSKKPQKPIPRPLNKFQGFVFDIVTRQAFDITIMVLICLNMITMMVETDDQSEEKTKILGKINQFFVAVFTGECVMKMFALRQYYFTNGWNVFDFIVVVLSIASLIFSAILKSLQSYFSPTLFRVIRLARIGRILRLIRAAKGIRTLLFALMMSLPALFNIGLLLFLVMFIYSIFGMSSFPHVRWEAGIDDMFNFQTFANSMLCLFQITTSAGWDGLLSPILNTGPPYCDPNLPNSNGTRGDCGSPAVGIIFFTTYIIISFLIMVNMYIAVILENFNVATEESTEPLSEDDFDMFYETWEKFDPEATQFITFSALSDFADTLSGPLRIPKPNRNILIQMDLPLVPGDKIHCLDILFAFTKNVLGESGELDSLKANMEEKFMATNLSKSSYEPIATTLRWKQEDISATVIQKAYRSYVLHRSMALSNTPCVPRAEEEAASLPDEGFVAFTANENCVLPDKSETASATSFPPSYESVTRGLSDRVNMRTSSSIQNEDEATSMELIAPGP

T1 sequence (P15390 whole entry): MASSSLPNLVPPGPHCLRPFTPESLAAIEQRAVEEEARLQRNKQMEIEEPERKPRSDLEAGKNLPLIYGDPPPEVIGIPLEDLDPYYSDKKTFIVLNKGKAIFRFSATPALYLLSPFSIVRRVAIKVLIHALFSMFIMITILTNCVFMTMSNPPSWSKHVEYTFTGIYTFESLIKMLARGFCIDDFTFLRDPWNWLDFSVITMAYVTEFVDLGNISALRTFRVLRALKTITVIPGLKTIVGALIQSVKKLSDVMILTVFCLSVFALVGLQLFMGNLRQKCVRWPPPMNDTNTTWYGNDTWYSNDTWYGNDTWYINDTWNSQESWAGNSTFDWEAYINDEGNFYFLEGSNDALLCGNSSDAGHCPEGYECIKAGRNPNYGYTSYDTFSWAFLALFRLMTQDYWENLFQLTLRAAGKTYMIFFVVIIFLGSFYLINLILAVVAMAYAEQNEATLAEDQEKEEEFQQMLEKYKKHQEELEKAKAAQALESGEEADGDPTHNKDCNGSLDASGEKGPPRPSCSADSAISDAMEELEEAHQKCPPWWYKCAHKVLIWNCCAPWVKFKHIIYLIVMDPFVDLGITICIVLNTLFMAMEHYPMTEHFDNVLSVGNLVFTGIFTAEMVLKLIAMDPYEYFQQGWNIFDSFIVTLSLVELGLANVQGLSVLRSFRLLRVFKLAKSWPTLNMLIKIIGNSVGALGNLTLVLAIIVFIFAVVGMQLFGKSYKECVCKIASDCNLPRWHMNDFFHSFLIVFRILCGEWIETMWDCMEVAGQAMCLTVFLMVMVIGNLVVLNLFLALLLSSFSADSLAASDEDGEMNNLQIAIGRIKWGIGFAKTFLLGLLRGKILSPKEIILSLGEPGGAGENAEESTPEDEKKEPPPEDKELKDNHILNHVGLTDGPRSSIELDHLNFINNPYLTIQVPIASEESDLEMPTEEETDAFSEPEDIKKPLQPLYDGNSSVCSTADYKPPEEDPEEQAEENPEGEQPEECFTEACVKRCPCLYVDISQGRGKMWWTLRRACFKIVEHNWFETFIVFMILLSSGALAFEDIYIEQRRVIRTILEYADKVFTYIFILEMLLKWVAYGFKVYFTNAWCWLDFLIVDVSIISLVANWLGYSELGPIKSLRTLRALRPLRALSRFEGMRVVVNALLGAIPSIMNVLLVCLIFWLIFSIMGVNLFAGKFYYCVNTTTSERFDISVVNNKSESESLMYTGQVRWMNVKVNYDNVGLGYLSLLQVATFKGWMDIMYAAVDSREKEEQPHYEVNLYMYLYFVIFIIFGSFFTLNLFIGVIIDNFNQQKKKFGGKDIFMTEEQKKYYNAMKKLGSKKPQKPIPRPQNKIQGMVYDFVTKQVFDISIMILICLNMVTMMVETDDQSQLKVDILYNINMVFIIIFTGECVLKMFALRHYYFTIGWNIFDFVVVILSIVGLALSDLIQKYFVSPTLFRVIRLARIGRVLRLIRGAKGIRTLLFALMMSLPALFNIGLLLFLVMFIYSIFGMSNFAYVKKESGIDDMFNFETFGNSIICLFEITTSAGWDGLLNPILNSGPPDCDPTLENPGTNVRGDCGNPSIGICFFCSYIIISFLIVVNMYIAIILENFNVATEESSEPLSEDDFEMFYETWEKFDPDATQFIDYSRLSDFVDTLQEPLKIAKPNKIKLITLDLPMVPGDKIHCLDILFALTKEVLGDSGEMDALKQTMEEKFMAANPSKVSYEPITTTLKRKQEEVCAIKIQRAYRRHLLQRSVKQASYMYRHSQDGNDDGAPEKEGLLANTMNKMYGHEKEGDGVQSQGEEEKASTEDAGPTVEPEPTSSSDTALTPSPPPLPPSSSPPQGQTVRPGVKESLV

CCN1CC2(COC)C3C(OC)C4C1C3(C1C[C@@]3(O)[C@H](OC(=O)c5ccc6ccccc6c5)[C@@H]1[C@]4(OC(C)=O)[C@@H](O)[C@@H]3OC)[C@@H](OC)C[C@H]2O (stereo partly drawn) [4.8c]
% Remaining current after reaching steady-state binding ([1]; 5 μM): 38% | % Remaining current after reaching steady-state binding ([1]; 20 μM): 5% | peak current blocked at steady state ([1]; 20 μM): around 95% | Current measured at 20 μM (%) ([1]; 20 μM): 3% | depolarizing pulses required to reach steady-state block ([1]; 20 μM): 800 pulses | peak current blocked at steady state ([1]; 73 μM): over 97% | Current measured at 75 μM (%) ([1]; 73 μM (footnote b)): 3^b % | % Remaining current after reaching steady-state binding ([1]; 73 μM (footnote c, 75 μM column)): 3^c % | depolarizing pulses required to reach steady-state block ([1]; 73 μM): ≤ 300 pulses | % Remaining current after reaching steady-state binding ([1]; 200 μM): 3% | current observed at steady state ([1]; concentrations of 20 μM and above): ≤ 5% | Activation V0.5 (mV) ([2]; 5 μM): −23.1 mV | Activation hg ([2]; 5 μM): 13.1 | Current after wash-off (%) ([3]; after wash-off of 20 μM): 4% | Current after wash-off (%) ([3]; after wash-off of 73 μM (footnote b)): 3^b % | reversibility of binding upon wash-off [3]: did not restore substantial current; also recorded: completely irreversible

CCN1CC2(COC)C3C(OC)C4C1C3(C1C[C@@]3(O)[C@H](OC(=O)C5CCCCC5)[C@@H]1[C@]4(OC(C)=O)[C@@H](O)[C@@H]3OC)[C@@H](OC)C[C@H]2O (stereo partly drawn) [4.8d]
effect on threshold for inactivation ([4]; 20 μM): shifted the threshold for inactivation towards higher potentials | Steady-state inactivation V0.5 (mV) ([4]; 21 μM): −53.1 mV | Steady-state inactivation k (slope factor at midpoint) ([4]; 21 μM): 8.1 | slope factor k of steady-state inactivation ([4]; concentration not given, unmodified ˜6): ~8 | % Remaining current after reaching steady-state binding ([1]; 5 μM): 82% | peak current blocked at steady state ([1]; 20 μM): 85% | depolarizing pulses required to reach steady-state block ([1]; 20 μM): around 600 pulses | Current measured at 20 μM (%) ([1]; 21 μM (footnote c)): 15^c % | % Remaining current after reaching steady-state binding ([1]; 50 μM): 10% | peak current blocked at steady state ([1]; 50 μM): 90% | depolarizing pulses required to reach steady-state block ([1]; 50 μM): Approximately 1000 pulses | % Remaining current after reaching steady-state binding ([1]; 200 μM): 6% | peak current blocked at steady state ([1]; 200 μM): 94% | depolarizing pulses required to reach steady-state block ([1]; 200 μM): 200 pulses | shift of voltage of half-activation (V0.5) towards the hypo-polarization [2]: more than 20 mV | effect on activation threshold ([2]; 20 μM): did not significantly shift the activation threshold | hypopolarized shift of potential of maximum current ([2]; 20 μM): 10 mV | membrane potential at which maximum current is observed ([2]; 20 μM): 0 mV | Activation V0.5 (mV) ([2]; 21 μM): 1.3 mV | Activation hg ([2]; 21 μM): 15.4 | current at −50 mV ([2]; 50 μM, after about 1000 pulses, no current in control cells): substantial currents; also recorded: more pronounced effect in this respect than the natural product | Current after wash-off (%) ([3]; after wash-off of 20 μM): 79% | Current after wash-off (%) ([3]; after wash-off of 21 μM (footnote c)): 79^c %

CCN1CC2(COC)C3C(OC)C4C1C3(C1C[C@@]3(O)[C@H](OC(=O)c5ccccc5N=[N+]=[N-])[C@@H]1[C@]4(OC(C)=O)[C@@H](O)[C@@H]3OC)[C@@H](OC)C[C@H]2O (stereo partly drawn) [4.8f]
% Remaining current after reaching steady-state binding ([1]; 50 μM): 22%

CCN1CC2(COC)C3[C@H](OC)C4C1C3(C1C[C@@]3(O)[C@H](OC(=O)c5cc6ccccc6oc5=O)C1[C@]4(OC(C)=O)[C@@H](O)[C@@H]3OC)[C@@H](OC)C[C@H]2O (stereo partly drawn) [4.8g]
Steady-state inactivation V0.5 (mV) ([4]; 75 μM): −75.6 mV | Steady-state inactivation k (slope factor at midpoint) ([4]; 75 μM): 11.6 | steady-state inactivation V0.5 ([4]; concentration not given): −76 mV | shift of steady-state inactivation V0.5 compared to the unmodified NaV channel ([4]; toward hyperpolarized potentials, concentration not given): 23 mV | concentration required to achieve the current levels observed with 20 μM aconitine [1]: 75 µM | % Remaining current after reaching steady-state binding ([1]; 20 μM): 79% | peak current blocked at steady state ([1]; 20 μM): 21% | Current measured at 20 μM (%) ([1]; 20 μM): 79% | depolarizing pulses required to reach steady-state block ([1]; 20 μM): over 2500 pulses | % Remaining current after reaching steady-state binding ([1]; 75 μM): 23% | peak current blocked at steady state ([1]; 75 μM): 77% | Current measured at 75 μM (%) ([1]; 75 μM): 23% | depolarizing pulses required to reach steady-state block ([1]; 75 μM): over 3000 pulses | Activation V0.5 (mV) ([2]; 75 μM): −36 mV | Activation hg ([2]; 75 μM): 8.9 | Current after wash-off (%) ([3]; after wash-off of 20 μM): 83% | Current after wash-off (%) ([3]; after wash-off of 75 μM): 31% | reversibility of binding upon wash-off [3]: did not restore substantial current

NC1=N[C@H](O)[C@H]2[C@H]3O[C@]4(O)O[C@@H]([C@@H](O)[C@@]2(N1)[C@@H]4O)[C@]3(O)CO [TTX, tetrodotoxin]
TTX potency [5]: 0.012 µM | TTX potency [6]: 60 µM
